What was measured:
Format in all cases: binding
[1] = test system: human monoclonal antibody CRJB
[2] = test system: human monoclonal antibody CR57
[3] = test system: human monoclonal antibody CRJA
[4] = test system: human monoclonal antibody CRJB; remark: listed apart in the source
[5] = test system: human monoclonal antibody CR57; remark: listed apart in the source
[6] = test system: human monoclonal antibody CRJA; remark: listed apart in the source

Sequence	Binding of human monoclonal antibody CRJB to linear peptide (PEPSCAN-ELISA signal) [1]	Binding of human monoclonal antibody CR57 to linear peptide (PEPSCAN-ELISA signal) [2]	Binding of human monoclonal antibody CRJA to linear peptide (PEPSCAN-ELISA signal) [3]	Binding of CRJB to looped/cyclic peptide (PEPSCAN-ELISA signal) [4]	Binding of CR57 to looped/cyclic peptide (PEPSCAN-ELISA signal) [5]	Binding of CRJA to looped/cyclic peptide (PEPSCAN-ELISA signal) [6]	Binding of CRJB to linear peptide (PEPSCAN-ELISA signal) [1]	Binding of CR57 to linear peptide (PEPSCAN-ELISA signal) [2]	Binding of CRJA to linear peptide (PEPSCAN-ELISA signal) [3]	Binding of CRJB (10 μg/ml) to looped/cyclic peptide (PEPSCAN-ELISA signal) [4]	Binding of CR57 (10 μg/ml) to looped/cyclic peptide (PEPSCAN-ELISA signal) [5]	Binding of CRJA (10 μg/ml) to looped/cyclic peptide (PEPSCAN-ELISA signal) [6]	Binding of CRJB (10 μg/ml) to looped/cyclic peptide (PEPSCAN-ELISA) [4]	Binding of CR57 (10 μg/ml) to looped/cyclic peptide (PEPSCAN-ELISA) [5]	Binding of CRJA (10 μg/ml) to looped/cyclic peptide (PEPSCAN-ELISA) [6]	binding of antibody CRJA to looped/cyclic peptide (PEPSCAN OD) [6]	binding of antibody CR57 to linear peptide (PEPSCAN OD) [2]
LADPSTVFKDGDEAE	116	68	86	90	134	90	–	–	–	–	–	–	–	–	–	–	–
AIKMNGFTCTGVVTE	–	–	–	–	–	–	103	47	93	79	69	71	–	–	–	–	–
EGCTNLSGFSYMELK	–	–	–	–	–	–	114	51	59	73	39	38	–	–	–	–	–
LHNPYPDYRWLRTVK	–	–	–	–	–	–	106	79	86	93	99	93	–	–	–	–	–
YTNFVGYVTTTFKRK	–	–	–	–	–	–	104	51	76	90	71	72	–	–	–	–	–
LMDGTWVAMQTSNET	–	–	–	–	–	–	106	96	102	–	–	–	76	106	92	–	–
WLRTVKTTKESLVII	–	–	–	–	–	–	104	41	85	78	55	78	–	–	–	–	–
SDEIEHLVVEELVRK	–	–	–	–	–	–	117	101	97	–	–	–	85	96	99	–	–
TWNEILPSKGCLRVG	–	–	–	–	–	–	146	97	93	–	–	–	113	132	127	–	–
LHDFRSDEIEHLVVE	–	–	–	–	–	–	115	93	110	–	–	–	65	40	90	–	–
YRWLRTVKTTKESLV	–	–	–	–	–	–	117	46	68	70	69	58	–	–	–	–	–
CSTNHDYTIWMPENP	–	–	–	–	–	–	106	52	58	72	47	41	–	–	–	–	–
VSFRRLSHLRKLVPG	–	–	–	–	–	–	111	90	55	–	–	–	94	141	99	–	–
NPRLGMSCDIFTNSR	–	–	–	–	–	–	113	90	82	101	78	91	–	–	–	–	–
YCSTNHDYTIWMPEN	–	–	–	–	–	–	92	47	76	71	65	468	–	–	–	clearly bound	–
VSSTYCSTNHDYTIW	–	–	–	–	–	–	107	78	80	61	89	88	–	–	–	–	–
GPDGNVLIPEMQSSL	–	–	–	–	–	–	154	86	91	–	–	–	100	141	112	–	–
GVLGLRLMDGTWVAM	–	–	–	–	–	–	148	89	107	–	–	–	83	118	104	–	–
FNGIILGPDGNVLIP	–	–	–	–	–	–	139	61	99	–	–	–	88	94	106	–	–
ILPSKGCLRVGGRCH	–	–	–	–	–	–	113	79	112	–	–	–	91	105	97	–	–
PWSPIDIHHLSCPNN	–	–	–	–	–	–	104	62	76	75	93	91	–	–	–	–	–
GFTCTGVVTEAENYT	–	–	–	–	–	–	86	71	90	68	94	87	–	–	–	–	–
VRTWNEILPSKGCLR	–	–	–	–	–	–	124	90	105	–	–	–	98	121	114	–	–
WNEILPSKGCLRVGG	–	–	–	–	–	–	136	102	98	–	–	–	98	112	96	–	–
AGDPRYEESLHNPYP	–	–	–	–	–	–	101	40	83	54	64	58	–	–	–	–	–
FKRKHFRPTPDACRA	–	–	–	–	–	–	92	64	86	72	148	86	–	–	–	–	–
DYTIWMPENPRLGMS	–	–	–	–	–	–	127	93	106	66	83	86	–	–	–	–	–
LKLCGVLGLRLMDGT	–	–	–	–	–	–	145	918	100	–	–	–	72	89	90	–	bound
SCPNNLVVEDEGCTN	–	–	–	–	–	–	114	83	88	69	82	85	–	–	–	–	–

Reference: US20060263802A1 (priority 2003, published 2006)
